From patent US8883077B2, “Disinfecting, nonbleaching N-halamine for use with contact lens” (Auburn University, priority 2010, dated 2014)
Converted amounts (≈) assume the structure as drawn.

Experiments:
[1] = Solubility in water at 22° C.; assay type: physicochemical
Source text: Both of the N-chloramine compounds mentioned above are able to easily be synthesized using methods known to those of skill in the art. Aqueous solutions of the un-halogenated amine precursor for either compound may be simply exposed to a dilute aqueous solution of household bleach (e.g., sodium hypochlorite) or sodium chlorite or by bubbling in chlorine gas to form the N-chloramine. For example, compound 1 has been prepared by Worley, et al., by using chlorine gas to react with an aqueous alkaline solution of the precursor amine (see Tsao, et al., “Novel N-Halamine Disinfectant Compounds”, Biotechnol. Prog. 1991, 7, 60 or Worley, et al., U.S. Pat. No. 5,057,612). It can also be purchased commercially from the HaloSource Corporation in Bothell, Wash. The precursor 2,2,5,5-tetramethyl-4-imidazolidinone is able to be prepared according to the method outlined in Tsao, et al., “Novel N-Halamine Disinfectant Compounds”, Biotechnol. Prog. 1991, 7, 60 or Worley, et al., U.S. Pat. No. 5,057,612. Compound 2 is able to be prepared by reaction of commercial (Aldrich Chemical Company, Milwaukee, Wis.) 2,2,6,6-tetramethyl-4-piperidinol with dilute household bleach. […] Pure compounds 1 and 2 contain 20.1 and 18.5 percent by weight oxidative chlorine, respectively. Their solubilities in water at 22° C. are 1930 and 6815 mg/L, respectively. […]

[2] = tested on: Staphylococcus aureus (ATCC 25923); assay: Disinfection efficacy in aqueous solution (colony counts after thiosulfate quench); assay type: cell-based; settings: 5 mg/L total chlorine (25 mg/L compound)
Protocol: The antimicrobial efficacy of compound 1 was evaluated against the pathogen Staphylococcus aureus (ATCC 25923) in aqueous solution at 22° C. and pH values of 4.5, 7.0, and 9.5. Solutions containing about 1×10^6 colony forming units (CFU) per mL final cell densities of bacteria were prepared and treated with compound 1 at a concentration of 5 mg/L total chlorine concentration (25 mg/L compound concentration). Aliquots were removed at predetermined contact times and quenched with sterile 0.02 N sodium thiosulfate to terminate disinfection action. Then serial dilutions were made into sterile saline solution, and 25 μL aliquots of each dilution were applied to the dried surface of a Petri dish containing tryptic soy agar. After 48 hours of incubation at 37° C., colony counts for each dilution were made. The results of three replicates were averaged. Control samples containing no disinfectant were handled in the same manner. Inactivation of the pathogen was considered to be at least 99.9999% (6 logs) when no viable colonies were detected in the thiosulfate-quenched aliquots.

[3] = Stability in aqueous solution and in Unisol 4 contact lens soak (iodometric/thiosulfate titration); assay type: physicochemical
Protocol: The stabilities of compound 1 in aqueous solution and in a contact lens soak formulation (Unisol 4 manufactured by Alcon Laboratories, Inc.) were determined at 22° C. by using the standard iodometric/thiosulfate titration procedure. In water buffered to pH 7.0 at 22° C., the compound at a starting concentration of 10 mg/L total chlorine lost less than 5% of its oxidative chlorine over a storage period of 50 days. In about 4 mL of Unisol 4 at a starting concentration of about 20 mg/L total chlorine in the presence of an ACUVUE 2 contact lens (manufactured by Johnson & Johnson Vision Care, Inc.) in a lens holder manufactured by Alcon Laboratories, Inc., the loss of oxidative chlorine over 60 days was about 21%. In contrast, in an analogous experiment with compound 2 in the Unisol 4, the loss was about 54% over just 30 days.

Q: For `CC1(C)NC(=O)C(C)(C)N1Cl` [compound 1, 1-chloro-2,2,5,5-tetramethyl-4-imidazolidinone], which solubility [1] is on record?
A: 1930 µg/mL (≈ 10.9 mM)

Q: What about the “contact time required for 99.9999% inactivation” value ([2]; pH 4.5, 22° C.) of the same compound?
A: 60 min

Q: And the “inactivation after 10 minutes contact” value ([2]; pH 4.5, 22° C., about 1×10^6 CFU/mL)?
A: 96%

Q: What about the “contact time required for 99.9999% inactivation” value ([2]; pH 7.0, 22° C.) of the same compound?
A: 588 min

Q: And the “inactivation after 10 minutes contact time” value ([2]; pH 7.0, 22° C., about 1×10^6 CFU/mL)?
A: 4.4%

Q: And the “contact time required for 99.9999% inactivation” value ([2]; pH 9.5, 22° C.)?
A: 454 min

Q: What about the “inactivation after 10 minutes contact time” value ([2]; pH 9.5, 22° C., about 1×10^6 CFU/mL) of the same compound?
A: 50%

Q: And the “loss of oxidative chlorine” value ([3]; about 4 mL Unisol 4 with ACUVUE 2 contact lens, starting about 20 mg/L total chlorine, 60 days)?
A: about 21%

Q: And the “loss of oxidative chlorine” value ([3]; water buffered to pH 7.0, 22° C., starting 10 mg/L total chlorine, storage 50 days)?
A: less than 5%

Q: Which solubility [1] does the source give for `CC1(C)CC(O)CC(C)(C)N1Cl` [compound 2, 1-chloro-2,2,6,6-tetramethyl-4-piperidinol, reference compound] here?
A: 6820 µg/mL (≈ 35.5 mM)

Q: And the “loss of oxidative chlorine” value ([3]; Unisol 4 with ACUVUE 2 contact lens, analogous experiment, 30 days)?
A: about 54%
